Laboratory results from US11945822B2, “Pyrazolo-triazine and/or pyrazolo-pxrimidine derivatives as selective inhibitor of cyclin dependent kinase” (QURIENT CO., LTD., priority 2018, dated 2024).

Experiments:
CDK7/Cyclin H/MNAT1 = biological target: T1, CDK7/Cyclin H/MNAT1 (Homo sapiens, UniProt P50613); assay: Enzymatic assay for CDK7 (FRET based LANCE Ultra kinase assay); type: biochemical; conditions: for IC50: read-out: CDK7 enzymatic activity (IC50 range)
T1 construct: purchased Invitrogen PR6749B
Outline: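 Inhibition was measured at Km ATP by time-resolved FRET between a Eu anti-phospho antibody and a phosphorylated ULight peptide. The enzyme was the purified CDK7/cyclin complex, and data were curve-fitted.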

CDK5/p25 = biological target: T2, CDK5/p25 (Homo sapiens, UniProt Q00535); assay: Enzymatic assay for CDK5 (FRET based LANCE Ultra kinase assay); type: biochemical; conditions: read-out: CDK5 enzymatic activity (IC50 range)
T2 construct: purchased Invitrogen PR8543B
Outline: (§1)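 Each CDK complex ([…]) phosphorylated 68 nM ULight-MBP peptide with ATP at Km for 60 min at 23° C., against 8 compound doses (4-fold dilutions). EDTA/Eu-anti-phospho-MBP detection, 60 min, then TR-FRET emission at 615 and 665 nm.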

HCT116 = assay: Cellular HCT116 viability assay (CellTiter-Glo, 72 hours); type: cell-based; conditions: Homo sapiens, HCT-116
Outline: (§2)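 Growth inhibition is assessed over a 72-hour incubation at 37 °C in 5% CO2, relative to DMSO vehicle (final concentration less than 0.1%). Luminescence from CellTiter-Glo serves as the viability signal.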

MM.1S = assay: Cellular MM.1S viability assay (CellTiter-Glo, 72 hours); type: cell-based; conditions: Homo sapiens, MM1.S
Text: Human T-cell acute lymphoblastic leukemia cell line, MOLT-4 (ATCC, Cat #CRL-1582), Human multiple myeloma cell line, RPMI-8226 (Invitrogen, Cat #22400-089) and MM.1S (ATCC, Cat #CRL-2974), NSCLC (Non-small cell lung cancer) cell line H460 (ATCC, Cat #HTB-177), Human colon colorectal carcinoma cell line HCT116 (ATCC, Cat #CCL-247), Human acute monocytic leukemia cell line MV4-11 (ATCC, Cat #CRL-9591), OVCAR-3 (ATCC, Cat #HTB-161) and A2780 (ECACC, Cat #93112519) were obtained from ATCC. Cells were grown in RPMI-1640 media (Invitrogen, Cat #22400-089) supplemented with 10% FBS (Invitrogen, Cat #10099141) and 1% penicillin/streptomycin (Invitrogen, Cat #15070063) and cultured at 37° C., 5% CO2 in a humidified chamber. All cell lines were routinely tested for mycoplasma.
The effect of the CDK7 inhibitor to inhibit the growth of target cancer cells was evaluated through the 72 hours time period of viability assay. Briefly, the candidate cell line ware plated in 96 well plate at the following density of cells respectively. 1×10^4 cells/well for MOLT-4, RPMI-8226, MV4-11 and MM.1S, 5×10^3 for H460, HCT116 and OVCAR-3 and IX 10^3 for A2780. After 24 hours, the cells were treated with various concentrations of the compound (ranging from 0.0015 uM to 10 uM). DMSO solvent without compound served as a control and final DMSO concentration less than 0.1%. After 72 hours of incubation at 37° C., 5% CO2 incubator, cells were analyzed for the viability using the CellTiter-Glo Luminescent Cell Viability Assay (Promega, Cat #G7570). All viability assays were performed in duplicate and Luminescence was read using an Envision (Perkin Elmer, USA). Data was analyzed using XLfit software.

H460 = assay: Cellular H460 viability assay (CellTiter-Glo, 72 hours); type: cell-based; conditions: Homo sapiens, NCI-H460
Outline: as §2

CDK2/Cyclin A = biological target: T3, CDK2/Cyclin A (Homo sapiens, UniProt P24941); assay: Enzymatic assay for CDK2 (FRET based LANCE Ultra kinase assay); type: biochemical; conditions: read-out: CDK2 enzymatic activity (IC50 range)
T3 construct: purchased Invitrogen PV6290
Outline: as §1

MV4-11 = assay: Cellular MV4-11 viability assay (CellTiter-Glo, 72 hours); type: cell-based; conditions: Homo sapiens
Outline: as §2

CDK1/Cyclin B = biological target: T4, CDK1/Cyclin B (Homo sapiens, UniProt P06493); assay: Enzymatic assay for CDK1 (FRET based LANCE Ultra kinase assay); type: biochemical; conditions: read-out: CDK1 enzymatic activity (IC50 range)
T4 construct: purchased Invitrogen PR4768C
Outline: as §1

T2 sequence (Q00535 whole entry): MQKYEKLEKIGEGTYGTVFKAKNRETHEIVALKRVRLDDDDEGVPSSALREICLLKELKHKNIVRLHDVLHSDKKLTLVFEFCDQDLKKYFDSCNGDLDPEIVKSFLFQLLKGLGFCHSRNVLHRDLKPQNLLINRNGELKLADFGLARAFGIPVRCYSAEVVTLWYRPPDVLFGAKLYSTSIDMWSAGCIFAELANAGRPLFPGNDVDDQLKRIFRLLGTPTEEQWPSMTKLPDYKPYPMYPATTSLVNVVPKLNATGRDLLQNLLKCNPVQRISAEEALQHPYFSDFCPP
T2 sequence (Q15078 99-307 partner limits assumed): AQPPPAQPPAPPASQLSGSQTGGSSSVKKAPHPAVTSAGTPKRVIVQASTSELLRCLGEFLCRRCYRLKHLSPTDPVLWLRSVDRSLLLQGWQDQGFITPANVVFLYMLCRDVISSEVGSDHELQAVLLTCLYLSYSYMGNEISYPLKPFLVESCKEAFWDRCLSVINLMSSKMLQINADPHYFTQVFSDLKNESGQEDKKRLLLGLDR
T1 sequence (P50613 whole entry): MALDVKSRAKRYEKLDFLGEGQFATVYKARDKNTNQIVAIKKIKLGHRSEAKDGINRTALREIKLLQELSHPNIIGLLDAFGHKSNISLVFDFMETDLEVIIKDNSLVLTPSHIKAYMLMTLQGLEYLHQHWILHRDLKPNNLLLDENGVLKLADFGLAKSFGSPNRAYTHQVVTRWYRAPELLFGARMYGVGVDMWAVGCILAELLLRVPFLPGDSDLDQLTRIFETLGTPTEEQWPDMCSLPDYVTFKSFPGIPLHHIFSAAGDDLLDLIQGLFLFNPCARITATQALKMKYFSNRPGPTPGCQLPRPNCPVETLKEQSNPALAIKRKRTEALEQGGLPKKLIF
T1 sequence (P51946 whole entry partner): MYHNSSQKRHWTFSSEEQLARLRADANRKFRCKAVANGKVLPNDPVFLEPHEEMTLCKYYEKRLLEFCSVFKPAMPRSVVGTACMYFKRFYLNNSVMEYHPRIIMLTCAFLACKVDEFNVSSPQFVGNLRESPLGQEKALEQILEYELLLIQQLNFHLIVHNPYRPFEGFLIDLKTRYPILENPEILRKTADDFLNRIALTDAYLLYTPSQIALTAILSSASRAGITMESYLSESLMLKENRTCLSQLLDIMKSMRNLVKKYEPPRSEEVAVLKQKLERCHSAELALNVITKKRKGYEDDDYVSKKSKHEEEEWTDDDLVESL
T1 sequence (P51948 whole entry partner): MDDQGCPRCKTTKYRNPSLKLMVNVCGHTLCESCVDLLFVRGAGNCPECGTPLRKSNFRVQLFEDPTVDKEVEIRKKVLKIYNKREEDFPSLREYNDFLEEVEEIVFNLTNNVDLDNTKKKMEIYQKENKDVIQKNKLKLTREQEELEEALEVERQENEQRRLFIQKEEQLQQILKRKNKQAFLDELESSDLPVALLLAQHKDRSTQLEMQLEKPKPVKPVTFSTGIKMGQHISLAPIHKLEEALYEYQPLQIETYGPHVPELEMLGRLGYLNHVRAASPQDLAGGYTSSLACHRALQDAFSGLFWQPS
T4 sequence (P06493 whole entry): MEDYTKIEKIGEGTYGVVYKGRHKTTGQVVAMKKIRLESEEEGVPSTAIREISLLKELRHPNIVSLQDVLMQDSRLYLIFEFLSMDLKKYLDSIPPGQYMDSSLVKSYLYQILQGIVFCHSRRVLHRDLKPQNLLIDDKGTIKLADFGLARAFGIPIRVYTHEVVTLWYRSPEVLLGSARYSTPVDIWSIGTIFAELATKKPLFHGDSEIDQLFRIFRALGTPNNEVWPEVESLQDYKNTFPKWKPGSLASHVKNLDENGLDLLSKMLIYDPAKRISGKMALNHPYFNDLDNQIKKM
T4 sequence (P14635 whole entry partner): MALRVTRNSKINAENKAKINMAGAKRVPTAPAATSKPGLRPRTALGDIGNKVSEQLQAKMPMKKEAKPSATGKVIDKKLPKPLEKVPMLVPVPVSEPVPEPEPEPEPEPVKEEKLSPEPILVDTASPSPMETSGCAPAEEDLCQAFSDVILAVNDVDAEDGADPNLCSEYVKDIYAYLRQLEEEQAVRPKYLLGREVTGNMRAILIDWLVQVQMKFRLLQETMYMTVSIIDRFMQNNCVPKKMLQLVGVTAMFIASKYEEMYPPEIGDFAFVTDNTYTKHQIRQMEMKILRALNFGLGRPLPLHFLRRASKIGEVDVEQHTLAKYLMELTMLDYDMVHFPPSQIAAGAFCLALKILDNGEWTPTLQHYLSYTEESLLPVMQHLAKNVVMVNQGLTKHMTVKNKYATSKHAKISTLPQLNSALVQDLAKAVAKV

SMILES | CDK1/CDK7: Selectivity of CDK7 inhibition over CDK1 inhibition (CDK7/Cyclin H/MNAT1) | CDK2/CDK7: Selectivity of CDK7 inhibition over CDK2 inhibition (CDK7/Cyclin H/MNAT1) | CDK5/CDK7: Selectivity of CDK7 inhibition over CDK5 inhibition (CDK7/Cyclin H/MNAT1) | IC50 (CDK7/Cyclin H/MNAT1) [nM] | IC50 (CDK5/p25) [nM] | IC50 (HCT116) [nM] | IC50 (MM.1S) [nM] | IC50 (H460) [nM] | IC50 (CDK2/Cyclin A) [nM] | IC50 (MV4-11) [nM] | IC50 (CDK1/Cyclin B) [nM]
CC(C)c1cnn2c(NCc3c(Cl)cccc3-n3ccc(C(=O)NC4CCNCC4)n3)nc(N3CCC(N)CC3)nc12 [Compound 196] | A (A=greater than 200 fold) | A (A=greater than 200 fold) | A (A=greater than 200 fold) | < 100 | 100 to 1000 | < 1000 | 1000 to 10000 | 1000 to 10000 | > 1000 | < 1000 | > 1000
CC(C)c1cnn2c(NCc3ccccc3-n3cc(C(=O)N4CCN(C)CC4)cn3)nc(N3CCC(N)CC3)nc12 [Compound 154] | A (A=greater than 200 fold) | A (A=greater than 200 fold) | B (B=less than 200 fold, but greater than 20 fold) | < 100 | < 100 | < 1000 | ≤ 1000 | < 1000 | 100 to 1000 | < 1000 | > 1000
CNC(=O)c1cccc(F)c1CNc1nc(N2CCC(N)CC2)nc2c(C(C)(C)C)cnn12 [Compound 20] | A (A=greater than 200 fold) | A (A=greater than 200 fold) | A (A=greater than 200 fold) | < 100 | > 1000 | – | 1000 to 10000 | < 1000 | > 1000 | < 1000 | > 1000
COc1cccc(-c2cc3ccccc3[nH]2)c1CNc1nc(N2CCC(N)CC2)nc2c(C(C)C)cnn12 [Compound 186] | A (A=greater than 200 fold) | A (A=greater than 200 fold) | B (B=less than 200 fold, but greater than 20 fold) | < 100 | > 1000 | – | 1000 to 10000 | 1000 to 10000 | > 1000 | 1000 to 10000 | > 1000
CC(C)c1cnn2c(N[C@H](C)c3ccccc3-c3cc4ccccc4[nH]3)nc(N3CCC(N)CC3)nc12 [Compound 188] | B (B=less than 200 fold, but greater than 20 fold) | C (C=less than 20 fold) | C (C=less than 20 fold) | 100 to 1000 | > 1000 | – | 1000 to 10000 | 1000 to 10000 | > 1000 | 1000 to 10000 | > 1000
Cc1[nH]c(-c2ccccc2CNc2nc(N3CCC(N)CC3)nc3c(C(C)C)cnn23)nc1C(=O)NC1CCOCC1 [Compound 178] | A (A=greater than 200 fold) | B (B=less than 200 fold, but greater than 20 fold) | C (C=less than 20 fold) | < 100 | < 100 | – | ≤ 1000 | < 1000 | 100 to 1000 | < 1000 | > 1000
CC(C)c1cnn2c(NCc3c(O)cccc3-c3cc4ccccc4[nH]3)nc(N3CCC(N)CC3)nc12 [Compound 185] | A (A=greater than 200 fold) | A (A=greater than 200 fold) | B (B=less than 200 fold, but greater than 20 fold) | < 100 | > 1000 | – | 1000 to 10000 | 1000 to 10000 | > 1000 | 1000 to 10000 | > 1000
